Holding throughout (experiment): fluorescence-based COX inhibitor assay kit
Common to all, as to type: biochemical

For experiment [1], the target named is T1, COX-2 (Homo sapiens, UniProt P35354).
T1 construct: gene PTGS2; construct not described
T1 sequence (P35354 18-604): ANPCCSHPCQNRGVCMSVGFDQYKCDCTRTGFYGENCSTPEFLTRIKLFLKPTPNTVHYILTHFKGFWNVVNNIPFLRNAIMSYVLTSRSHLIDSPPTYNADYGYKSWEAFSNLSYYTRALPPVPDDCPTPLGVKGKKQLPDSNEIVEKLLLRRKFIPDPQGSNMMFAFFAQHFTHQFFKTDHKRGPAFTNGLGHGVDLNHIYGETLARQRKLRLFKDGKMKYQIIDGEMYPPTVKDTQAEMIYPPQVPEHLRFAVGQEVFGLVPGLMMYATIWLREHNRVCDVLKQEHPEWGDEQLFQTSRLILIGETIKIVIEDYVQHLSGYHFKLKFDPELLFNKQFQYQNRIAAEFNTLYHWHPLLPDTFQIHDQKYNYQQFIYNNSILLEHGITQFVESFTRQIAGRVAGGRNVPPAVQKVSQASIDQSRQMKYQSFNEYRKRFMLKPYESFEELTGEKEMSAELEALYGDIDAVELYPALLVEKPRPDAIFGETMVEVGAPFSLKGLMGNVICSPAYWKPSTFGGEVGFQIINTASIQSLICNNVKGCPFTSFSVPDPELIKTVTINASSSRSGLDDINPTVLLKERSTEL
Conditions: […] compound.

Experiment [2] addresses T1, COX-2.
Another experiment deals with T2, COX-1 (Ovis aries, UniProt P05979).
T2 construct: gene PTGS1; construct not described
T2 sequence (P05979 25-600): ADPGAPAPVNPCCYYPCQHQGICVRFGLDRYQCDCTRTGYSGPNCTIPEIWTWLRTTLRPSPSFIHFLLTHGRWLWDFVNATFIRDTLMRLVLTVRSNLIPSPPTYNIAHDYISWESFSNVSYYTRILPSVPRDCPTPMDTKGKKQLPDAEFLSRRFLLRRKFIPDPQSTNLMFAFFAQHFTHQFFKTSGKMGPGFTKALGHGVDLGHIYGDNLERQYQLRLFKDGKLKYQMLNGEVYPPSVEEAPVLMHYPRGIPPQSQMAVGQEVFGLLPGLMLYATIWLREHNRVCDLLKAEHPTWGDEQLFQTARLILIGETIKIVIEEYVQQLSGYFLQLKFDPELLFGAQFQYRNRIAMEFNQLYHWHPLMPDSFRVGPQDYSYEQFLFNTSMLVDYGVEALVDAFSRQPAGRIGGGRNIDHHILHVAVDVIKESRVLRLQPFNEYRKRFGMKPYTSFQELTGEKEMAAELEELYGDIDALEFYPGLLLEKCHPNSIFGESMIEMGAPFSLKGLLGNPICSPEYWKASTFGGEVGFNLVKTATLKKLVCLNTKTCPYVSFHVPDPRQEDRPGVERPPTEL
Conditions: […] compound. The text has this: fluorescence-based COX inhibitor assay kit on COX-1

Regarding “Cesium 1-(1′-hydroxymethyl)-nido-carborane [2a]”, at COX-2 [1], the “% Inhibition @ 100 μM / COX-2” value was 38%. As to “Cesium 1-(2′-hydroxyethyl)-nido-carborane [2b]”, the IC50 against COX-2 [2] came out at 84.1 µM. Consider “[Ru(η^6-p-cymene)-1-{methyl (R/S)-2-[4-(2-fluorobiphenyl-4-yl)propanoic acid ester]-closo-C2B9H10}] [4a]”, for which the “% Inhibition @ 100 μM / COX-1” value at COX-1 is 33%.

Regarding “[Ru(η^6-p-cymene)-2-{ethyl (R/S)-2-[4-(2-fluorobiphenyl-4-yl)propanoic acid ester]-closo-C2B9H10}] [4b]”, the “% Inhibition @ 100 μM / COX-1” value on COX-1 is given as 40%. On the same count and under the same terms, under “[Ru(η^6-p-cymene)-2-{ethyl (R/S)-2-[4-(2-propylphenyl)propanoic acid ester]-closo-C2B9H10}] [6b]” stands 30%.
